Measured values taken from PubChem BioAssay AID1963971 (Molecular Pharmacology Branch, DTP, NCI, 2024).

System: 953936-095-R-J2-PDC spheroids with HUVEC/MSC, viability
Assay: Anticancer human tumor 953936-095-R-J2-PDC patient-derived cervical squamous cell carcinoma cell line growth inhibition [PI3K]
Settings: for IC50: curve of first compound; for viability, T/C: stronger effect = lower value
Summary of the method: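 Viability of mixed-cell spheroids was determined after exposure to pairwise combinations, one partner being inavolisib, alpelisib, duvelisib or copanlisib. Highest tested concentration matched clinical Cmax where known and 10 microM where not, descending in half-log steps.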

[1] = second compound 0.00316 µM, first compound 0.0316 µM
[2] = second compound 0.00316 µM, first compound 0.1 µM
[3] = second compound 0.00316 µM, first compound 0.316 µM
[4] = second compound 0.00316 µM, first compound 1 µM
[5] = second compound 0.00316 µM, first compound 3.16 µM
[6] = second compound 0.00316 µM, first compound 10 µM
[7] = second compound 0.01 µM, first compound 0.0316 µM
[8] = second compound 0.01 µM, first compound 0.1 µM
[9] = second compound 0.01 µM, first compound 0.316 µM
[10] = second compound 0.01 µM, first compound 1 µM
[11] = second compound 0.01 µM, first compound 3.16 µM
[12] = second compound 0.01 µM, first compound 10 µM
[13] = second compound 0.0316 µM, first compound 0.0316 µM
[14] = second compound 0.0316 µM, first compound 0.1 µM
[15] = second compound 0.0316 µM, first compound 0.316 µM
[16] = second compound 0.0316 µM, first compound 1 µM
[17] = second compound 0.0316 µM, first compound 3.16 µM
[18] = second compound 0.0316 µM, first compound 10 µM
[19] = second compound 0.1 µM, first compound 0.0316 µM
[20] = second compound 0.1 µM, first compound 0.1 µM
[21] = second compound 0.1 µM, first compound 0.316 µM
[22] = second compound 0.1 µM, first compound 1 µM
[23] = second compound 0.1 µM, first compound 3.16 µM
[24] = second compound 0.1 µM, first compound 10 µM
[25] = second compound 0.316 µM, first compound 0.0316 µM
[26] = second compound 0.316 µM, first compound 0.1 µM
[27] = second compound 0.316 µM, first compound 0.316 µM
[28] = second compound 0.316 µM, first compound 1 µM
[29] = second compound 0.316 µM, first compound 3.16 µM
[30] = second compound 0.316 µM, first compound 10 µM
[31] = second compound 1 µM, first compound 0.0316 µM
[32] = second compound 1 µM, first compound 0.1 µM
[33] = second compound 1 µM, first compound 0.316 µM
[34] = second compound 1 µM, first compound 1 µM
[35] = second compound 1 µM, first compound 3.16 µM
[36] = second compound 1 µM, first compound 10 µM
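Note: spheroids exposed to compounds for seven days before read-out.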

C#Cc1c(F)ccc2cc(O)cc(-c3ncc4c(N5CC6CCC(C5)N6)nc(OCC56CCCN5CC(F)C6)nc4c3F)c12 (stereo unspecified) + COc1c(OCCCN2CCOCC2)ccc2c3n(c(=NC(=O)c4cnc(N)nc4)nc12)CCN3
IC50 (second compound 0.00316 µM): > 10 µM
IC50 (second compound 0.01 µM): 3.92 µM
IC50 (second compound 0.0316 µM): < 0.0316 µM
IC50 (second compound 0.1 µM): < 0.0316 µM
IC50 (second compound 0.316 µM): < 0.0316 µM
IC50 (second compound 1 µM): < 0.0316 µM
viability, T/C [1]: 81.9%
viability, T/C [2]: 87.8%
viability, T/C [3]: 86.6%
viability, T/C [4]: 92.2%
viability, T/C [5]: 72%
viability, T/C [6]: 58.9%
viability, T/C [7]: 75.5%
viability, T/C [8]: 74.1%
viability, T/C [9]: 69.1%
viability, T/C [10]: 58.4%
viability, T/C [11]: 54.3%
viability, T/C [12]: 40%
viability, T/C [13]: 40.1%
viability, T/C [14]: 39.5%
viability, T/C [15]: 38.7%
viability, T/C [16]: 33.8%
viability, T/C [17]: 25.7%
viability, T/C [18]: 19.6%
viability, T/C [19]: 18.3%
viability, T/C [20]: 18.8%
viability, T/C [21]: 14.1%
viability, T/C [22]: 10.9%
viability, T/C [23]: 8.08%
viability, T/C [24]: 6.07%
viability, T/C [25]: 5.75%
viability, T/C [26]: 4.83%
viability, T/C [27]: 4.36%
viability, T/C [28]: 3.39%
viability, T/C [29]: 2.56%
viability, T/C [30]: 1.89%
viability, T/C [31]: 1.56%
viability, T/C [32]: 1.33%
viability, T/C [33]: 0.98%
viability, T/C [34]: 1.02%
viability, T/C [35]: 0.79%
viability, T/C [36]: 0.41%

CC(Cn1ccc(-c2ccc(C#N)c(Cl)c2)n1)NC(=O)c1cc(C(C)O)[nH]n1 (stereo unspecified) + COc1c(OCCCN2CCOCC2)ccc2c3n(c(=NC(=O)c4cnc(N)nc4)nc12)CCN3
IC50 (second compound 0.00316 µM): > 10 µM
IC50 (second compound 0.01 µM): > 10 µM
IC50 (second compound 0.0316 µM): < 0.0316 µM
IC50 (second compound 0.1 µM): < 0.0316 µM
IC50 (second compound 0.316 µM): < 0.0316 µM
IC50 (second compound 1 µM): < 0.0316 µM
viability, T/C [1]: 80.3%
viability, T/C [2]: 88.3%
viability, T/C [3]: 84.1%
viability, T/C [4]: 101%
viability, T/C [5]: 90.7%
viability, T/C [6]: 89.2%
viability, T/C [7]: 68.8%
viability, T/C [8]: 71.6%
viability, T/C [9]: 76.3%
viability, T/C [10]: 71.1%
viability, T/C [11]: 78.9%
viability, T/C [12]: 70.2%
viability, T/C [13]: 43.5%
viability, T/C [14]: 40.9%
viability, T/C [15]: 42.6%
viability, T/C [16]: 39.8%
viability, T/C [17]: 46.2%
viability, T/C [18]: 41.1%
viability, T/C [19]: 19.4%
viability, T/C [20]: 19.4%
viability, T/C [21]: 20.7%
viability, T/C [22]: 20.3%
viability, T/C [23]: 21.8%
viability, T/C [24]: 19.8%
viability, T/C [25]: 7.44%
viability, T/C [26]: 6.25%
viability, T/C [27]: 7.53%
viability, T/C [28]: 6.55%
viability, T/C [29]: 7.13%
viability, T/C [30]: 8.7%
viability, T/C [31]: 1.6%
viability, T/C [32]: 1.39%
viability, T/C [33]: 2%
viability, T/C [34]: 1.92%
viability, T/C [35]: 2.08%
viability, T/C [36]: 1.97%

CC1(C)CCC(Nc2ncc(C(F)(F)F)c(-c3c[nH]c4c(P(C)(C)=O)c(C#N)ccc34)n2)CN1 (stereo unspecified) + COc1c(OCCCN2CCOCC2)ccc2c3n(c(=NC(=O)c4cnc(N)nc4)nc12)CCN3
IC50 (second compound 0.00316 µM): 0.0316 µM
IC50 (second compound 0.01 µM): < 0.0316 µM
IC50 (second compound 0.0316 µM): < 0.0316 µM
IC50 (second compound 0.1 µM): < 0.0316 µM
IC50 (second compound 0.316 µM): < 0.0316 µM
IC50 (second compound 1 µM): < 0.0316 µM
viability, T/C [1]: 45.6%
viability, T/C [2]: 47%
viability, T/C [3]: 53.5%
viability, T/C [4]: 47.1%
viability, T/C [5]: 52%
viability, T/C [6]: 5.49%
viability, T/C [7]: 46.2%
viability, T/C [8]: 42.2%
viability, T/C [9]: 49.5%
viability, T/C [10]: 35.5%
viability, T/C [11]: 44%
viability, T/C [12]: 6.01%
viability, T/C [13]: 26.9%
viability, T/C [14]: 22.6%
viability, T/C [15]: 25.4%
viability, T/C [16]: 25.5%
viability, T/C [17]: 24.4%
viability, T/C [18]: 1.19%
viability, T/C [19]: 11.9%
viability, T/C [20]: 16.5%
viability, T/C [21]: 12.2%
viability, T/C [22]: 11.8%
viability, T/C [23]: 8.68%
viability, T/C [24]: 0.34%
viability, T/C [25]: 5.51%
viability, T/C [26]: 5.07%
viability, T/C [27]: 3.84%
viability, T/C [28]: 4.98%
viability, T/C [29]: 3.94%
viability, T/C [30]: 0.16%
viability, T/C [31]: 1.33%
viability, T/C [32]: 1.62%
viability, T/C [33]: 1.12%
viability, T/C [34]: 1.34%
viability, T/C [35]: 1.37%
viability, T/C [36]: 0.31%
